From the supplement of paper PMC10307832

How the values were obtained:
Experiment in all cases: relative viability (nuclei count vs DMSO), 5 days (fraction); higher = more cells survive
[1] = compound: CC1=NC=CC(=C1)C2=CC=C(C=C2)CC(=O)NC3=CC=C(C=C3)C4=CN=CC=C4 [Wnt-C59] + CC(=O)c1c(C)c2cnc(Nc3ccc(N4CCNCC4)cn3)nc2n(C2CCCC2)c1=O [Palbociclib] (partner 0.5 µM)
In short: (§1)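 Cells from lung cancer lines were seeded into 1536-well plates and, one day later, dosed by pin tool. Treatments were either a single drug or a fixed dose of an anchor drug with five library-drug doses (not always all listed) in √10 steps. After 5 days, nuclei were stained in a one-step fixation (final 0.05% Triton X-100, 1% formaldehyde, 1 ug/ml Hoechst) and counted on 4× images, and relative viability is the treated-to-vehicle nuclei ratio, as the median of duplicate plates.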

[2] = compound: CC1=NC=CC(=C1)C2=CC=C(C=C2)CC(=O)NC3=CC=C(C=C3)C4=CN=CC=C4 [Wnt-C59] + C[C@]1(O)C[C@@H](c2nc(-c3ccc4ccc(-c5ccccc5)nc4c3)c3c(N)nccn32)C1 [Linsitinib] (partner 1 µM)
In short: as §1

[3] = compound: CC1=NC=CC(=C1)C2=CC=C(C=C2)CC(=O)NC3=CC=C(C=C3)C4=CN=CC=C4 [Wnt-C59] + Cc1cc(Nc2cc(N3CCN(C)CC3)nc(Sc3ccc(NC(=O)C4CC4)cc3)n2)n[nH]1 [Tozasertib] (partner 0.1 µM)
In short: as §1

[4] = compound: CS(=O)(=O)CCNCc1ccc(-c2ccc3ncnc(Nc4ccc(OCc5cccc(F)c5)c(Cl)c4)c3c2)o1 [Lapatinib] + CC(C)C[C@H](NC(=O)[C@H](Cc1ccccc1)NC(=O)c1cnccn1)B(O)O [Bortezomib] (partner 0.002 µM)
In short: as §1

Work on UMC-11 yielded a relative viability ([1]; first compound 0.001 µM) of 0.337, a relative viability ([1]; first compound 0.01 µM) of 0.319 and a relative viability ([1]; first compound 0.03162 µM) of 0.361. The relative viability ([1]; first compound 0.1 µM) was 0.305, the relative viability ([2]; first compound 0.001 µM) was 0.96 and the relative viability ([2]; first compound 0.01 µM) was 0.977. For the same cell line, the relative viability ([2]; first compound 0.03162 µM) was 1.04, the relative viability ([2]; first compound 0.1 µM) was 0.991 and the relative viability ([3]; first compound 0.001 µM) was 0.214. For the same cell line, the relative viability ([3]; first compound 0.01 µM) was 0.197, the relative viability ([3]; first compound 0.03162 µM) was 0.203 and the relative viability ([3]; first compound 0.1 µM) was 0.226. The relative viability ([4]; first compound 0.02 µM) was 0.838, the relative viability ([4]; first compound 0.06325 µM) was 0.705 and the relative viability ([4]; first compound 0.2 µM) was 0.852. For the same cell line, the relative viability ([4]; first compound 0.6325 µM) was 0.798 and the relative viability ([4]; first compound 2 µM) was 0.665.
